# pIC50: −log10 of the molar value.
# Target: T1, Prostaglandin D2 receptor 2 (Homo sapiens) (UniProt Q9Y5Y4)
# T1 sequence (whole entry): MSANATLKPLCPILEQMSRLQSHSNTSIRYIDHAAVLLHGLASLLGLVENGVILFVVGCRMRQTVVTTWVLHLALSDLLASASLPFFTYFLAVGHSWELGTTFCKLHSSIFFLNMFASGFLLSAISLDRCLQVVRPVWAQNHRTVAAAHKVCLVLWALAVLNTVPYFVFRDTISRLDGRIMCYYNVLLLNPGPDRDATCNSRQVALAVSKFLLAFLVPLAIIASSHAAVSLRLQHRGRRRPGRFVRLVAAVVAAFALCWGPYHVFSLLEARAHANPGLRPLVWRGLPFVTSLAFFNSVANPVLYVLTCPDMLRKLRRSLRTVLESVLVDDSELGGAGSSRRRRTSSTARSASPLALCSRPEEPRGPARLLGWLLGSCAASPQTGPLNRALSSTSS
# Experiment: not given
# Conditions: CHO-K1
row,T1/2,Compound
1,1.2 h,CCN(Cc1cc(C(F)(F)F)ccc1-c1cc(CC(=O)O)cc2cn(C)nc12)C(=O)C1CC1
2,1.5 h,CCN(Cc1cc(C(F)(F)F)ccc1-c1cc(CC(=O)O)c2ccncn12)C(=O)C1CC1
3,0.7 h,CCN(Cc1cc(C(F)(F)F)ccc1-c1cc(CC(=O)O)cn2ccnc12)C(=O)C1CC1
4,1.4 h,CCN(Cc1cc(C(F)(F)F)ccc1-c1cc(CC(=O)O)cc2cnn(C)c12)C(=O)C1CC1
5,0.2 h,CCN(Cc1cc(C(F)(F)F)ccc1-c1cc(CC(=O)O)c2ccnn2c1)C(=O)C1CC1

# Target: not listed separately
# Experiment: Antagonist activity at CRTh2 receptor in human eosinophil assessed as inhibition of PGD2-induced cell shape change
# Conditions: not given
row,pIC50,Compound
1,7.08,CCN(Cc1cc(C(F)(F)F)ccc1-n1cc(CC(=O)O)c2ccccc21)C(=O)C1CC1

# Target: T2, Prostaglandin D2 receptor 2 (Homo sapiens, UniProt Q9Y5Y4)
# T2 sequence (Q9Y5Y4 whole entry): T1 sequence (whole entry)
# Experiment: Antagonist activity at CRTh2 receptor (unknown origin) overexpressed in CHOK1 cell membranes assessed as inhibition of [35S]-GTPgammaS binding at 1 to 5 uM preincubated for 1 hr followed by 50 nM PGD2 and 0.1 nM [35S]-GTPgammaS addition measured after 2 hrs by liquid scintillation counting analysis relative to control
# Type: functional, CHO-K1
# Conditions: not given
row,pIC50,Compound
1,7.32,CCN(Cc1cc(C(F)(F)F)ccc1-c1cc(CC(=O)O)cc2cn(C)nc12)C(=O)C1CC1
2,6.80,CCN(Cc1cc(C(F)(F)F)ccc1-c1cc(CC(=O)O)cn2ccnc12)C(=O)C1CC1
3,7.32,CCN(Cc1cc(C(F)(F)F)ccc1-c1cc(CC(=O)O)cc2cnn(C)c12)C(=O)C1CC1
4,6.91,CCN(Cc1cc(C(F)(F)F)ccc1-c1cc(CC(=O)O)c2ccnn2c1)C(=O)C1CC1
5,6.61,CCN(Cc1cc(C(F)(F)F)ccc1-c1cc(CC(=O)O)cn2nccc12)C(=O)C1CC1
6,6.40,CCN(Cc1cc(C(F)(F)F)ccc1-c1cc(CC(=O)O)cn2cnnc12)C(=O)C1CC1
7,6.58,CCN(Cc1cc(C(F)(F)F)ccc1-c1cc(CC(=O)O)c2cccn2c1)C(=O)C1CC1

# From ChEMBL document CHEMBL3352694, “Structure-activity relationships (SAR) and structure-kinetic relationships (SKR) of bicyclic heteroaromatic acetic acids as potent CRTh2 antagonists I” (Bioorg Med Chem Lett, 2014)
